Measurements taken from ChEMBL document CHEMBL5584343, “Cerastecin Inhibition of the Lipooligosaccharide Transporter MsbA to Combat Acinetobacter baumannii: From Screening Impurity to In Vivo Efficacy” (J Med Chem, 2024).
In brackets after ≈: the same amount, converted by molar mass. Activity calls are given as the source filed them. The rule behind the calls is not given here.

How the values were obtained:
Acinetobacter baumannii [1] = experiment: Antibacterial activity against Acinetobacter baumannii ATCC19606 incubated for 18 to 20 hrs in presence of 10% human serum by microbroth dilution method; format: functional; conditions: time 18-20 hrs
Acinetobacter baumannii [2] = experiment: Selectivity ratio of MIC95 for antibacterial activity against Acinetobacter baumannii ATCC19606 in the presence of 10% human serum to MIC95 for antibacterial activity against Acinetobacter baumannii ATCC19606; format: functional
[3] = (§1) Cytotoxicity against GFP fused human MT4 cells cultured under serum free condition for 24 hrs by CellTiter-Glo assay; format: toxicity, cell-based; conditions: GFP fused MT4 cells
[4] = Inhibition of wildtype Acinetobacter baumannii MsbA preincubated for 30 mins followed by ATP addition and measured after 1 hrs by Transcreener ADP2 F1 assay
Acinetobacter baumannii [5] = experiment: Antibacterial activity against Acinetobacter baumannii ATCC19606 assessed as bacterial growth inhibition incubated for 18 to 20 hrs by microbroth dilution method; format: functional; conditions: time 18-20 hrs
[6] = Cmax in male C57BL/6 mouse at 300 mg/kg, sc measured after 24 hrs by LC-MS/MS analysis; format: ADME, organism-based; conditions: in vivo
[7] = AUC (0 to infinity) in male C57BL/6 mouse at 300 mg/kg, sc measured after 24 hrs by LC-MS/MS analysis; format: ADME, organism-based; conditions: in vivo
[8] = Lipophilicity, logD of compound at pH 7 by HPLC analysis; format: physicochemical; conditions: buffer
[9] = Plasma protein binding in C57BL/6 mouse assessed as free fraction at 1000 to 100000 ng/ml by equilibrium dialysis based LC-MS/MS analysis; format: ADME, cell-free; conditions: dose 1000-100000 ng/ml
Acinetobacter baumannii [10] = experiment: Antibacterial activity against Acinetobacter baumannii ATCC19606 incubated for 18 to 20 hrs in presence of 1% of human serum by microbroth dilution method; format: functional; conditions: time 18-20 hrs
Acinetobacter baumannii [11] = experiment: Antibacterial activity against Acinetobacter baumannii CLB21655 incubated for 18 to 20 hrs in presence of 50% mouse serum by microbroth dilution method; format: functional; conditions: time 18-20 hrs
Acinetobacter baumannii [12] = experiment: Antibacterial activity against Acinetobacter baumannii CLB21655 incubated for 18 to 20 hrs in presence of 10% mouse serum by microbroth dilution method; format: functional; conditions: time 18-20 hrs
Acinetobacter baumannii [13] = experiment: Antibacterial activity against Acinetobacter baumannii CLB21655 incubated for 18 to 20 hrs in presence of 50% human serum by microbroth dilution method; format: functional; conditions: time 18-20 hrs
Acinetobacter baumannii [14] = experiment: Antibacterial activity against Acinetobacter baumannii CLB21655 assessed as bacterial growth inhibition incubated for 18 to 20 hrs by microbroth dilution method; format: functional; conditions: time 18-20 hrs
Acinetobacter baumannii [15] = experiment: Selectivity ratio of MIC95 for antibacterial activity against Acinetobacter baumannii ATCC19606 in the presence of 1% human serum to MIC95 for antibacterial activity against Acinetobacter baumannii ATCC19606; format: functional
MT4 = experiment: as §1; format: toxicity, cell-based; conditions: mt4, 24 h, time 24 hrs
Acinetobacter baumannii [16] = experiment: Antibacterial activity against Acinetobacter baumannii clinic isolates; format: functional
Acinetobacter baumannii [17] = experiment: Antibacterial activity against wild type Acinetobacter baumannii; format: functional

SMILES	MIC95 (Acinetobacter baumannii [1]) [µM]	EC50 [4] [µM]	MIC95 (Acinetobacter baumannii [5]) [µM]	MIC95 (Acinetobacter baumannii [10]) [µM]	Selectivity ratio (Acinetobacter baumannii [2])	EC50 at 24 h [3] [µM]	other results
O=C(O)c1cc(CN[C@H]2C[C@@H](CNc3ccc(NS(=O)(=O)c4cnn(-c5ccc(Cl)cc5)c4)c(C(=O)O)c3)C2)ccc1NS(=O)(=O)c1cnn(-c2ccc(Cl)cc2)c1	–	2.38	0.024 (≈ 0.0208 µg/mL)	0.098	–	32.7	Activity (Acinetobacter baumannii [1]): inactive
O=C(O)c1cc(CN2CC(Oc3ccc(NS(=O)(=O)N4CCOC(c5ccc(F)cc5)C4)c(C(=O)O)c3)C2)ccc1NS(=O)(=O)CCCc1ccc(F)cc1 (racemic)	–	–	–	–	–	–	MIC (Acinetobacter baumannii [11]): > 100 µM; MIC (Acinetobacter baumannii [12]): 6.25 µM; MIC (Acinetobacter baumannii [13]): 12.5 µM; MIC (Acinetobacter baumannii [14]): 0.098 µM (≈ 0.0785 µg/mL)
CCCCc1ccc(S(=O)(=O)Nc2ccc(NC(=O)Nc3ccc(NS(=O)(=O)c4ccc(CCCC)cc4)c(C(=O)O)c3)cc2C(=O)O)cc1	–	–	2.21 (≈ 1.6 µg/mL)	–	–	–	logD [8]: 2.3
O=C(O)c1cc(CN2CC(Oc3ccc(NS(=O)(=O)c4cnn(-c5ccc(F)cc5)c4)c(C(=O)O)c3)C2)ccc1NS(=O)(=O)CCCCCc1ccc(Cl)cc1	–	–	–	–	–	–	MIC (Acinetobacter baumannii [11]): 25 µM; MIC (Acinetobacter baumannii [12]): 3.12 µM; MIC (Acinetobacter baumannii [13]): 25 µM; MIC (Acinetobacter baumannii [14]): 0.024 µM (≈ 0.0198 µg/mL)
O=C(CCCOc1ccc(NS(=O)(=O)CCc2ccc(F)cc2)c(C(=O)O)c1)Nc1ccc(NS(=O)(=O)CCc2ccc(F)cc2)c(C(=O)O)c1	–	1.14	3.12 (≈ 2.33 µg/mL)	25	–	–	Selectivity ratio (Acinetobacter baumannii [15]): 8; Activity (MT4): Non-Toxic
Cn1nc(-c2ccccc2)cc1S(=O)(=O)Nc1ccc(NC(=O)CCCOc2ccc(NS(=O)(=O)c3cc(-c4ccccc4)nn3C)c(C(=O)O)c2)cc1C(=O)O	–	0.0038	0.024 (≈ 0.0195 µg/mL)	1.11	–	0.7	Selectivity ratio (Acinetobacter baumannii [15]): 46
CN1C(=O)[C@H](CCCCN)NC(=O)[C@H](CCCN)NCc2cccnc2Sc2cccc(-c3ccc(C(=O)O)cc3)c2CNC(=O)[C@@H]1Cc1c[nH]c2ccccc12 [ZOSURABALPIN]	–	–	–	–	–	–	MIC (Acinetobacter baumannii [16]): 0.12 mg/L (≈ 0.152 µM); MIC (Acinetobacter baumannii [17]): 0.3 µM (≈ 0.237 µg/mL)
O=C(CCCOc1ccc(NS(=O)(=O)c2ccc(Oc3ccc(Cl)cc3)nc2)c(C(=O)O)c1)Nc1ccc(NS(=O)(=O)c2ccc(Oc3ccc(Cl)cc3)nc2)c(C(=O)O)c1	–	0.029	0.012 (≈ 0.0109 µg/mL)	3.12	–	36.3	Selectivity ratio (Acinetobacter baumannii [15]): 260

Now from value to molecule, other results behind:

MIC95 (Acinetobacter baumannii [1]) [µM]	EC50 [4] [µM]	MIC95 (Acinetobacter baumannii [5]) [µM]	MIC95 (Acinetobacter baumannii [10]) [µM]	SMILES	Selectivity ratio (Acinetobacter baumannii [2])	EC50 at 24 h [3] [µM]	other results
3.12	0.017	0.049 (≈ 0.04 µg/mL)	–	O=C(O)c1cc(CN2CC(Oc3ccc(NS(=O)(=O)c4ccc(-c5ccc(F)cc5)cc4)c(C(=O)O)c3)C2)ccc1NS(=O)(=O)c1cnn(-c2ccc(F)cc2)c1	64	> 42	–
6.25	0.0073	0.024 (≈ 0.0197 µg/mL)	–	O=C(O)c1cc(CN2CC(Oc3ccc(NS(=O)(=O)c4ccc(-c5ccc(F)cc5)s4)c(C(=O)O)c3)C2)ccc1NS(=O)(=O)c1cnn(-c2ccc(F)cc2)c1	260	> 42	Cmax [6]: 502 µM; AUC [7]: 7970 µM·h; logD [8]: 1.8; Fu [9]: 0.6%
3.12	0.887	0.391 (≈ 0.333 µg/mL)	–	O=C(O)c1cc(CNC2CN(Cc3ccc(NS(=O)(=O)c4cnn(-c5ccc(Cl)cc5)c4)c(C(=O)O)c3)C2)ccc1NS(=O)(=O)c1cnn(-c2ccc(Cl)cc2)c1	8	> 42	–
3.12	1.29	0.196 (≈ 0.17 µg/mL)	–	O=C(O)c1cc(CN[C@H]2C[C@@H](NCc3ccc(NS(=O)(=O)c4cnn(-c5ccc(Cl)cc5)c4)c(C(=O)O)c3)C2)ccc1NS(=O)(=O)c1cnn(-c2ccc(Cl)cc2)c1	16	> 42	–
